Test results as given in the NIST ThermoML archive (doi:10.1016/j.fluid.2005.02.015).
Numbers after ± are expanded uncertainties.

Key:
[1] = Liquid; for mass density: 298.15 K, 101.33 kPa
[2] = refractive index (Na D-line) (dimensionless); settings: 293.15 K; 101.33 kPa; Liquid; Standard Abbe refractometry
[3] = xn = mol fraction of the nth substance listed; settings: 298.15 K, 101.33 kPa, Liquid

CCOC(=O)[C@H](C)O [(S)-(-)-ethyl lactate]
Settings | mass density [kg/m3] | refractive index
[1] | 1032.94 ± 0.24 | –
[2] | – | 1.4129 ± 0.0007

Settings | vapor or sublimation pressure [kPa]
[1], 427.65 K | 101.33 ± 0.34

CCOC(=O)[C@H](C)O [(S)-(-)-ethyl lactate] + CCO
[3]
Settings | mass density [kg/m3]
x2 = 0 | 1032.94 ± 0.24
x2 = 0.1242 | 1018.42 ± 0.21
x2 = 0.2256 | 1004.73 ± 0.19
x2 = 0.312 | 991.37 ± 0.2
x2 = 0.3921 | 977.447 ± 0.23
x2 = 0.5236 | 950.894 ± 0.29
x2 = 0.5735 | 939.295 ± 0.31
x2 = 0.6735 | 913.364 ± 0.35
x2 = 0.7574 | 887.971 ± 0.4
x2 = 0.7941 | 875.598 ± 0.42
x2 = 0.8267 | 863.971 ± 0.44
x2 = 0.8559 | 852.975 ± 0.47
x2 = 0.9578 | 809.773 ± 0.55

CCCCO [butan-1-ol]
Settings | mass density [kg/m3] | refractive index
[1] | 809.572 ± 0.55 | –
[2] | – | 1.3993 ± 0.0007

Settings | vapor or sublimation pressure [kPa]
[1], 390.88 K | 101.33 ± 0.34

CCCCO [butan-1-ol] + CCCCOC(=O)[C@H](C)O
Settings | mass density [kg/m3]
[3], x1 = 1 | 809.572 ± 0.55

CCCCOC(=O)[C@H](C)O [butyl L-lactate]
Settings | mass density [kg/m3] | refractive index
[1] | 982.178 ± 0.21 | –
[2] | – | 1.4218 ± 0.0007

[1]
Settings | vapor or sublimation pressure [kPa]
390 K | 10.62 ± 0.35
395 K | 13.01 ± 0.36
400 K | 15.8 ± 0.37
405 K | 19.04 ± 0.38
410 K | 22.79 ± 0.39
415 K | 27.09 ± 0.41
420 K | 32 ± 0.42
425 K | 37.58 ± 0.44
430 K | 43.87 ± 0.46
435 K | 50.94 ± 0.48
440 K | 58.84 ± 0.51
445 K | 67.65 ± 0.54
450 K | 77.41 ± 0.57
455 K | 88.19 ± 0.6
460 K | 100.05 ± 0.64
460.75 K | 101.33 ± 0.65

CCCCOC(=O)[C@H](C)O [butyl L-lactate] + CCCCO
[3]
Settings | mass density [kg/m3]
x2 = 0 | 982.178 ± 0.21
x2 = 0.0989 | 971.809 ± 0.23
x2 = 0.1806 | 962.459 ± 0.25
x2 = 0.2599 | 952.704 ± 0.27
x2 = 0.3973 | 933.863 ± 0.31
x2 = 0.5154 | 915.521 ± 0.35
x2 = 0.5669 | 906.818 ± 0.36
x2 = 0.6645 | 888.883 ± 0.4
x2 = 0.7069 | 880.503 ± 0.41
x2 = 0.7854 | 863.836 ± 0.44
x2 = 0.8546 | 847.901 ± 0.47
x2 = 0.9174 | 832.199 ± 0.5
x2 = 0.9728 | 817.297 ± 0.53

CCO [ethanol]
Settings | mass density [kg/m3] | refractive index
[1] | 789.261 ± 0.59 | –
[2] | – | 1.3614 ± 0.0007

Settings | vapor or sublimation pressure [kPa]
[1], 351.44 K | 101.33 ± 0.34

CCO [ethanol] + CCOC(=O)[C@H](C)O
Settings | mass density [kg/m3]
[3], x1 = 1 | 789.261 ± 0.59

CC(C)OC(=O)[C@H](C)O [isopropyl (S)-2-hydroxypropionate]
Settings | mass density [kg/m3] | refractive index
[1] | 986.942 ± 0.2 | –
[2] | – | 1.4105 ± 0.0007

[1]
Settings | vapor or sublimation pressure [kPa]
355 K | 7.424 ± 0.34
360 K | 9.156 ± 0.35
365 K | 11.22 ± 0.36
370 K | 13.68 ± 0.36
375 K | 16.58 ± 0.37
380 K | 20 ± 0.38
385 K | 23.99 ± 0.4
390 K | 28.63 ± 0.41
395 K | 34.02 ± 0.43
400 K | 40.24 ± 0.45
405 K | 47.39 ± 0.47
410 K | 55.59 ± 0.5
415 K | 64.93 ± 0.53
420 K | 75.56 ± 0.56
425 K | 87.6 ± 0.6
430 K | 101.19 ± 0.64
430.21 K | 101.33 ± 0.64

CC(C)OC(=O)[C@H](C)O [isopropyl (S)-2-hydroxypropionate] + CC(C)O
[3]
Settings | mass density [kg/m3]
x2 = 0 | 986.942 ± 0.2
x2 = 0.087 | 976.815 ± 0.22
x2 = 0.197 | 962.69 ± 0.25
x2 = 0.281 | 950.807 ± 0.27
x2 = 0.3554 | 939.404 ± 0.3
x2 = 0.542 | 906.498 ± 0.37
x2 = 0.5652 | 901.903 ± 0.37
x2 = 0.6921 | 874.425 ± 0.42
x2 = 0.7733 | 854.447 ± 0.46
x2 = 0.8365 | 837.361 ± 0.49
x2 = 0.8675 | 828.428 ± 0.51
x2 = 0.9249 | 810.801 ± 0.55
x2 = 0.9516 | 802.104 ± 0.56

CC(C)O [propan-2-ol]
Settings | mass density [kg/m3] | refractive index
[1] | 785.428 ± 0.6 | –
[2] | – | 1.3774 ± 0.0007

Settings | vapor or sublimation pressure [kPa]
[1], 355.36 K | 101.33 ± 0.34

CC(C)O [propan-2-ol] + CC(C)OC(=O)[C@H](C)O
Settings | mass density [kg/m3]
[3], x1 = 1 | 785.428 ± 0.6
